Where “and” joins values, the source holds several entries; their conditions need not be identical. Identical values can stand only once.
Biological target: T1, endogenous P2X4 channels (Homo sapiens, UniProt Q99571)
T1 construct: measure calcium influx through endogenous P2X4 channels into primary human monocytes
T1 sequence (Q99571 1-388): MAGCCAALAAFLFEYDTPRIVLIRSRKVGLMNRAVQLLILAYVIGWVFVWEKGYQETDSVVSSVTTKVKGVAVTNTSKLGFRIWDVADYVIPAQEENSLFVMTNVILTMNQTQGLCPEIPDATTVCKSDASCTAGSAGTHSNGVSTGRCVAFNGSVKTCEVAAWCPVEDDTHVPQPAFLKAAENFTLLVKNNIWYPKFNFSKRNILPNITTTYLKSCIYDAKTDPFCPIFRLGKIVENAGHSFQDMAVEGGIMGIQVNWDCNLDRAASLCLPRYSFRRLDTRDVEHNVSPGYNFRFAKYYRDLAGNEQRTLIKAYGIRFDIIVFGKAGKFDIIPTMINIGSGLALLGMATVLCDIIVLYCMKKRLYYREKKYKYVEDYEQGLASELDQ
Assay: Human Monocyte P2X4 Assay (FLIPR)
Type: cell-based
Details: primary human monocytes, 3 μM BzATP, one value per donor
Procedure: The principle of the assay is to measure calcium influx through endogenous P2X4 channels into primary human monocytes, following activation by 2′,3′-O-(4-benzoyl-benzoyl)-ATP (Bz-ATP). Intracellular calcium concentration changes were measured with a Flipr® (Molecular Devices) device using a calcium sensitive dye (Fluo-8). In primary monocytes P2X4 is located at the lysosome membrane, therefore exocytosis has to be triggered to expose P2X4 at the cellular membrane.
Human peripheral blood mononuclear cells (PBMCs) from anticoagulated blood (blood cells, BC) were isolated via density gradient centrifugation. Whole blood was diluted 1:3 with PBS. Samples of 30 mL were layered carefully on top of 15 mL Biocoll (BIOCHROM) in 50 mL centrifuge tubes (Falcon). Tubes were centrifuged at 914×g for 25 min at RT without brake. The PBMC layer was removed with a 10 mL pipette and transferred into tubes with ice-cold PBS in a total volume of 50 mL. Cells were washed twice by pelleting at 300×g at 4° C., for 10 min and for 5 min respectively. PBMCs were re-suspended in 10 mL medium (X-vivo, Biozym Scientific) and counted in a Neubauer chamber.
Monocytes were isolated by negative selection using the Monocyte isolation kit II from Miltenyi (#130-091-153) according to the instructions. Isolation should be done fast and cells and solutions should be kept on ice at any time. PBMCs in batches of 10 exp8 cells were pelleted (300×g, 10 min) and re-suspended with 300 μL MACS buffer in a 50 mL Falcon tube. FcR Blocking reagent (100 μl) and Biotin-Ab (100 μl) were added, mixed and incubated on ice for 10 min. MACS buffer (300 μL) and anti-Biotin Micro-beads (100 μL) were added, mixed and incubated on ice for 15 min. Cells were washed by pelleting (300×g for 10 min) and re-suspended in 500 μL MACS buffer. For each batch one separation column was placed in the MACS separator and rinsed with 3 mL MACS buffer. The cell suspension was added to the column, followed by 3×3 mL MACS buffer for washing, and the eluent containing the monocytes was collected. Cells were pelleted (300×g for 10 min), re-suspended in X-vivo medium and counted. Monocytes were seeded into fibronectin-coated micro-plates (384-well, black, flat transparent bottom; Corning #3848) at a density of 30,000 cells/well in 50 μL, and cultivated over night (37° C., 5% CO2).
Test substances were dissolved in 100% DMSO at a stock concentration of 10 mM and stored at −20° C. in aliquots. Serial dilutions (2×) were prepared in DMSO and diluted 500× with assay buffer to generate the antagonist plate. In the Flipr measurement, 10 μL per well were transferred (4× dilution) and a final top concentrations of 5 μM and 0.05% DMSO were obtained in the assay. Agonist BzATP was stored at 10 mM in aliquots and diluted to an intermediate concentration of 15 μM to generate the agonist plate. In the Flipr measurement, 10 μL per well were transferred (5× dilution) so that a final assay concentration of 3 μM was obtained.
For the experiment, the medium of the cell plate was discarded manually and 70 μL/well loading buffer was added and incubated for 1 h (37° C., 5% CO2). Loading buffer contained HBSS (w/o calcium/magnesium), 10 mM Hepes pH 7.4, 5 μM Fluo-8 (AM) (Tebu-bio) and 50 mM methylamine (Sigma) to trigger exocytosis. Loading buffer was discarded manually and 30 μL/well low-calcium assay buffer (5 mM KCl, 145 mM NaCl, 0.5 mM CaCl2, 13 mM glucose, 10 mM Hepes pH 7.4) was added. The antagonist plate was transferred (10 μL/well) and after 15 min at RT the agonist plate (10 μL/well) was transferred.
Agonist addition was recorded for 240 seconds after a 10 second baseline. For analysis, a baseline correction was applied, and the maximum of the curve was extracted. Data were normalized towards 0% inhibition (signal at 3 μM BzATP) and 100% inhibition (absence of BzATP stimulation) and fitted with a four-parameter sigmoidal inhibition curve using Prism GraphPad to obtain IC50 values.

SMILES: N#Cc1cnn(-c2ccc(NC(=O)Cc3ccccc3Cl)cc2S(N)(=O)=O)c1 [Example 39, 2-(2-Chlorophenyl)-N-[4-(4-cyano-1H-pyrazol-1-yl)-3-sulfamoylphenyl]acetamide]
- Human P2X4 Monocytes (FLIPR Assay) Efficacy for different donors: 81% and 78%

Reference: US11524938B2, “Aromatic sulfonamide derivatives” (Bayer Pharma Aktiengesellschaft, priority 2016, dated 2022)
